Laboratory results published in patent publication US6432968B1 (Aventis Pharma Deutschland GmbH, priority 1994, dated 2002).

What follows are molecules tested on Human peripheral blood mononuclear cells (PBMC) (assay: Mixed human lymphocyte reaction (MLR) assay). Conditions: immunosuppressant alone, 0.5 nM, read-out: inhibition of lymphocyte proliferation.
Type: cell-based
Procedure: coculture of lymphocytes of different […] (MLR=mixed lymphocyte reaction): lymphocytes containing different antigens of the HLA-DR type (=allogens) activate each other non-specifically.
100 μl of those PBMC are mixed with 100 μl of irradiated PMBC (1×10^6 cells/ml) in a well of a microtiter plate. The test substances, alone or in combination, are likewise added to the PBMC. The plates are incubated for 5 days at 37° C. in a moist atmosphere which contains 5% CO2. Then 1 μCi of ^3H-thymidine is added to the cells and they are incubated under the abovementioned conditions for a further 8 hours. The cells are then collected on glass fiber filters and the incorporated radioactivity is determined using a beta counter.
Inhibition is given in percent and referred to uninhibited controls (which correspond to 0%).
Inhibition is given in percent and referred to uninhibited controls (which correspond to 0%)
Work on `C=CC[C@@H]1/C=C(\C)C[C@H](C)C[C@H](OC)[C@H]2O[C@@](O)(C(=O)C(=O)N3CCCC[C@H]3C(=O)O[C@H](/C(C)=C/[C@@H]3CC[C@@H](O)[C@H](OC)C3)[C@H](C)[C@@H](O)CC1=O)[C@H](C)C[C@@H]2OC` [FK 506, Tacrolimus, reference compound] yielded an inhibition at 0.0005 µM of 30%. `CO[C@H]1C[C@@H]2CC[C@@H](C)[C@@](O)(O2)C(=O)C(=O)N2CCCC[C@H]2C(=O)O[C@H]([C@H](C)C[C@@H]2CC[C@@H](O)[C@H](OC)C2)CC(=O)[C@H](C)/C=C(\C)[C@@H](O)[C@@H](OC)C(=O)[C@H](C)C[C@H](C)/C=C/C=C/C=C/1C` [RPM, rapamycin, reference compound] showed an inhibition at 0.0005 µM of 35%.

Same assay, conditions: read-out: % inhibition of proliferation (100 μM), 100 μM, referred to uninhibited controls (0%)
Molecule `CCCn1cnc2c1c(=O)n(CCCCC(C)O)c(=O)n2C` (centres unmarked) [Compound 3, 1-(5-hydroxyhexyl)-3-methyl-7-propyl-xanthine] has an inhibition at 100 µM of 83%. Molecule `CCCCn1cnc2c1c(=O)n(CCCCC(C)(C)O)c(=O)n2C` [Compound 8, 1-(5-hydroxy-5-methylhexyl)-3-methyl-7-butylxanthine] has an inhibition at 100 µM of 91%. Molecule `CCOCn1cnc2c1c(=O)n(CCCCC(C)(C)O)c(=O)n2C` [Compound 9, 7-ethoxymethyl-1-(5-hydroxy-5-methylhexyl)-3-methylxanthine] has an inhibition at 100 µM of 61%. Molecule `CCCCn1cnc2c1c(=O)n(CCCCCC(C)(C)O)c(=O)n2CC` [Compound 11, 7-butyl-3-ethyl-1-(6-hydroxy-6-methylheptyl)-xanthine] has an inhibition at 100 µM of 94%. `Cn1c(=O)n(CCCCC(C)(C)O)c(=O)c2c1ncn2CC1CC1` [Compound 12, 7-cyclopropylmethyl-1-(5-hydroxy-5-methylhexyl)-3-methylxanthine] showed an inhibition at 100 µM of 85%. Molecule `CCCCCCn1c(=O)c2c(ncn2C)n(C)c1=O` [Compound 14, 1-hexyl-3,7-dimethylxanthine] has an inhibition at 100 µM of 85%.
